# Laboratory results: BindingDB's records for doi:10.1021/acs.jnatprod.1c00014 (Jiangsu University of Science and Technology, 2021)
# Target: Maltase-glucoamylase (Homo sapiens, UniProt O43451)
# Experiment: Inhibition of alpha-glucosidase (unknown origin) preincubated for 5 mins followed by addition of pNPG substrate and measured after 30 mins by spectrophotometric method
# Sequence of Maltase-glucoamylase (O43451 whole entry): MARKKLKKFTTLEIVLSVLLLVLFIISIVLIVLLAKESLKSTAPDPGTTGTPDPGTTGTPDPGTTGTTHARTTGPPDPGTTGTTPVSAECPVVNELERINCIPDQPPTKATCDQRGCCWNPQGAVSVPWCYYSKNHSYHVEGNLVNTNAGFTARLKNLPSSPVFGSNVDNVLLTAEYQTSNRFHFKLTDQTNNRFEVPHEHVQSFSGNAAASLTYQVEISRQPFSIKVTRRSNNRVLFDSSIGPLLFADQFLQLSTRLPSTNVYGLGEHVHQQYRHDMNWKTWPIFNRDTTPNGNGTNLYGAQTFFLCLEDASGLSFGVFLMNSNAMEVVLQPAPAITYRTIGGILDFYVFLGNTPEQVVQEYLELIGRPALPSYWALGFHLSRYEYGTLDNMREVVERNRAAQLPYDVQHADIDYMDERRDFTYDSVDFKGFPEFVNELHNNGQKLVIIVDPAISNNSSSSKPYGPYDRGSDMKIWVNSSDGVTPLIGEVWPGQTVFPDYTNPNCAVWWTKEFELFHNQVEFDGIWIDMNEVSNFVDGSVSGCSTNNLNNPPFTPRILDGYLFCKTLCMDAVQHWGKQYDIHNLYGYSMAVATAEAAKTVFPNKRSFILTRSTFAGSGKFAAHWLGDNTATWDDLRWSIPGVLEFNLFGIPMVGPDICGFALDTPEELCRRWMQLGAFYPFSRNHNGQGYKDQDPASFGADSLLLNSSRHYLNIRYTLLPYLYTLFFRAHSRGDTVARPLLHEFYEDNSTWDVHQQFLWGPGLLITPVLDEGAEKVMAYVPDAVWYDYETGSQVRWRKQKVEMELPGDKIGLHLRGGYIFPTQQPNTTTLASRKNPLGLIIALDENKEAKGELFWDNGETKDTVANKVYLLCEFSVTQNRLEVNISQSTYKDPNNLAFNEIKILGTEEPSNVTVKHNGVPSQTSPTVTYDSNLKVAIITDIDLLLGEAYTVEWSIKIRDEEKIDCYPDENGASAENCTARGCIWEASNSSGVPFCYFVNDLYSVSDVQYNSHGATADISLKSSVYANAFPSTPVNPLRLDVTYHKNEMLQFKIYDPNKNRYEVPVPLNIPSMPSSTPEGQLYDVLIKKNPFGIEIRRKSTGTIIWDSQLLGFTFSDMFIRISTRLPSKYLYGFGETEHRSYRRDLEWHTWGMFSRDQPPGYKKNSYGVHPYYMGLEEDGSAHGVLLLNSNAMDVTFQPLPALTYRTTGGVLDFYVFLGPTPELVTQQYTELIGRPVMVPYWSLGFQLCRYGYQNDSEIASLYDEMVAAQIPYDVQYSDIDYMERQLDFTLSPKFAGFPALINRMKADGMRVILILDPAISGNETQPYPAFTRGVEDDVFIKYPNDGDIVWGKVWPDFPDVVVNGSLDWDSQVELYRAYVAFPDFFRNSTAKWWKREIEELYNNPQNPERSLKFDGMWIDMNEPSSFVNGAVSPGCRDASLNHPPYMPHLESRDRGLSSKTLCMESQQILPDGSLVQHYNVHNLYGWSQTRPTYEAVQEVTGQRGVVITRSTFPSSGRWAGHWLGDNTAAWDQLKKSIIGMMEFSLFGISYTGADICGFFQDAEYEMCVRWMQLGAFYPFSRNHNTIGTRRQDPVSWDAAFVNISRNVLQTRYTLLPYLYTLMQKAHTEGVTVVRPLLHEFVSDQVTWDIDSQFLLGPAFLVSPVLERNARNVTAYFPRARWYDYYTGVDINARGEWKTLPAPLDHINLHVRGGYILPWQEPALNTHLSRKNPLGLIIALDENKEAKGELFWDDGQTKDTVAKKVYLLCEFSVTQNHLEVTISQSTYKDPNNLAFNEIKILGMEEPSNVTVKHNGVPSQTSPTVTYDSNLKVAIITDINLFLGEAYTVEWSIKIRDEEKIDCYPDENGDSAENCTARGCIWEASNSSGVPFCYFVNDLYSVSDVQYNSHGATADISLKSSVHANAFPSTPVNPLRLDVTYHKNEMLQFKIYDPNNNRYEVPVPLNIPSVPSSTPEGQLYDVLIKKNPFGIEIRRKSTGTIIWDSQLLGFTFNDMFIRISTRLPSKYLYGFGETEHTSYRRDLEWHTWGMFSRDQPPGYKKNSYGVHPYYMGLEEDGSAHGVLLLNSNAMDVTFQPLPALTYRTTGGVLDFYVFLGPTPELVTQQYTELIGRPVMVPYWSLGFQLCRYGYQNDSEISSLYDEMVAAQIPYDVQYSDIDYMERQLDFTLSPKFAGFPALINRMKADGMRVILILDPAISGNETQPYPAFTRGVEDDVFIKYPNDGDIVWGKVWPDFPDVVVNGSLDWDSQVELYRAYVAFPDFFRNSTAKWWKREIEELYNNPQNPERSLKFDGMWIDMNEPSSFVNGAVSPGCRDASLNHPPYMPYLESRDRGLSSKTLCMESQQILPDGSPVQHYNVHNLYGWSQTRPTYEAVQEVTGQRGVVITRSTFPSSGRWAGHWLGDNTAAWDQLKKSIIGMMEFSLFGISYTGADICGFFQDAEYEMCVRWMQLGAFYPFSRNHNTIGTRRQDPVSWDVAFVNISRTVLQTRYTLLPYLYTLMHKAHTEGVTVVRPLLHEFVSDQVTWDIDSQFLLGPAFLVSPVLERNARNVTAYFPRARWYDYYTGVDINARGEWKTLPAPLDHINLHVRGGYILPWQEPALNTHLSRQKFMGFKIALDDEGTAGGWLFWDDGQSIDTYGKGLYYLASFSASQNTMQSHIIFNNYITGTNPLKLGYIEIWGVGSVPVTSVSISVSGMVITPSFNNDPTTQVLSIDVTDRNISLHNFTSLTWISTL
row,Structure (SMILES),IC50 [nM]
1,COc1ccc(-c2oc3cc(OC)cc(OC)c3c(=O)c2OCCCCCCCCN2C[C@H](O)[C@@H](O)[C@H](O)[C@H]2CO)cc1,1780
2,COc1ccc(-c2oc3cc(OC)cc(OC)c3c(=O)c2OCCCCCN2C[C@H](O)[C@@H](O)[C@H](O)[C@H]2CO)cc1,40600
3,COc1ccc(-c2oc3cc(OC)cc(OC)c3c(=O)c2OCCCCCCCCCCCN2C[C@H](O)[C@@H](O)[C@H](O)[C@H]2CO)cc1,240
